Data taken from patent publication US10307398B2, “Resuscitation composition and methods of making and using” (Regents of the University of Minnesota, priority 2016, dated 2019).
In brackets after ≈: the same amount, converted by molar mass. Several values for one entry are separate records, joined by “and”; a condition that tells them apart may be missing. Identical values can stand only once.

Assays:
[1] = water vapor sorption of BHB; assay type: physicochemical; conditions: 25° C.
Description: Water vapor sorption. About 5 mg of sample was placed in the quartz sample pan of an automated vapor sorption balance (DVS-1000, Surface Measurement Systems, London, UK), maintained at 25° C. It was dried under dry nitrogen purge (flow rate 200 mL/min) to constant weight. Equilibrium was assumed to have been achieved if the mass change was <0.001% over 30 min. […] Equilibrium was assumed to have been achieved if the mass change was <0.005% over 30 min. The microbalance was calibrated periodically using a 100 mg standard weight.
In order to gain a deeper understanding into the water-BHB interaction, the ‘as is’ BHB was heated in the TGA up to 120° C., cooled to RT and transferred to the sample chamber of the water sorption analyzer. The other relevant details are provided in the Experimental section. There was no water sorption up to 15% RH and then the sample gained ˜3% water at 20% RH (FIG. 10). This is in excellent agreement with the water content in ‘as is’ BHB. […] However, under the experimental conditions in the water sorption analyzer (maximum dwell time of 360 minutes at any RH), equilibrium was not attained. Therefore, when the RH was further increased to 55%, a pronounced weight increase again was observed. […] There were two RH ranges, (0-20% and 35-55%) where hysteresis was observed.

[2] = cited from earlier work
[3] = solubility of melatonin in excipient solutions; assay type: physicochemical; conditions: aqueous with cosolvent or surfactant or cyclodextrin, thermodynamic from solid
Description: A saturated melatonin solution was prepared containing the indicated excipient concentrations and incubated end over end at room temperature for 72 hours. After 72 hours, solutions were filtered through a […] filter and diluted 1:10. Absorption was measured spectrophotometrically at 287 nm (excipient solutions alone were used as blanks).

physchem = test: physchem
Description: Assuming formation of 1:1 complex between drug and ligand, the complexation efficiency (CE) can be calculated from the slope of the phase-solubility diagram:
[formula] where So is the intrinsic substrate solubility and k1:1 stability constant of the complex.
Solubility Studies. […] An excess amount of MLT was added either to water or PVP solution (concentration ranging from 0.1 to 20% w/v) in polypropylene tubes (protected from light) and incubated with end-over-end rotation at 25° C. until equilibrium was achieved (72 hours). An aliquot was filtered (0.45 μm membrane) and the absorption measured at 270 nm (Epoch microplate spectrophotometer, BioTek, Winooski, Vt.).
PVP is known to form water soluble or insoluble complexes with various drugs with either enhancement or reduction in solubility.

C[C@@H](O)CC(=O)O [BHB, D-β-hydroxybutyrate]
water gain (water sorption) ([1]; at 20% RH, BHB previously heated to 120° C.): ~3%
increase in weight (water sorption, deliquescence) ([1]; at 50% RH): ~40%

CC(O)COC[C@H]1O[C@@H]2O[C@H]3[C@H](O)[C@@H](O)[C@@H](O[C@H]4[C@H](O)[C@@H](O)[C@@H](O[C@H]5[C@H](O)[C@@H](O)[C@@H](O[C@H]6[C@H](O)[C@@H](O)[C@@H](O[C@H]7[C@H](O)[C@@H](O)[C@@H](O[C@H]8[C@H](O)[C@@H](O)[C@@H](O[C@H]1[C@H](O)[C@H]2O)O[C@@H]8COCC(C)O)O[C@@H]7COCC(C)O)O[C@@H]6COCC(C)O)O[C@@H]5COCC(C)O)O[C@@H]4COCC(C)O)O[C@@H]3COCC(C)O (stereo partly drawn) [HPbCD, Hydroxypropyl-beta-cyclodextrin]
solubility [2]: exceeds 600 mg/ml

COc1ccc2[nH]cc(CCNC(C)=O)c2c1 [melatonin, 5-methoxy-N-acetyltryptamine]
solubility at 72 h ([3]; 10% HPbCD/5% PEG400/5% PVP K12 solution, in 10% HPbCD/5% PEG400/5% PVP K12, room temperature): > 43000 µM and > 10000 µg/mL
solubility at 72 h ([3]; 20% PVP solution, in 20% PVP, room temperature): > 43000 µM and > 10000 µg/mL
molar ratio of total drug to free drug (physchem): 1.17
slope of the phase solubility diagram (physchem): 0.030
solubility thermodynamic at 72 h (physchem; 25 °C, water, thermodynamic from solid): ~8 mM (≈ 1860 µg/mL)
